# pIC50, pKi: −log10 of the molar value.
# How the values were obtained:
# hCA XII = hCA XII (Homo sapiens, UniProt O43570); test: Stopped flow CO2 hydrase assay; settings: for Selectivity ratio I/XII: Ki hCA I / Ki hCA XII; for Selectivity ratio II/XII: Ki hCA II / Ki hCA XII
# hCA II = hCA II (Homo sapiens, UniProt P00918); test: Stopped flow CO2 hydrase assay
# hCA I = hCA I (Homo sapiens, UniProt P00915); test: Stopped flow CO2 hydrase assay
# hCA IX = hCA IX (Homo sapiens, UniProt Q16790); test: Stopped flow CO2 hydrase assay; settings: for Selectivity ratio I/IX: Ki hCA I / Ki hCA IX; for Selectivity ratio II/IX: Ki hCA II / Ki hCA IX
# [1] = Fig. 2; read-out: cytotoxicity average IC50; cited from earlier work
# hCA XII, sequence (O43570 25-354): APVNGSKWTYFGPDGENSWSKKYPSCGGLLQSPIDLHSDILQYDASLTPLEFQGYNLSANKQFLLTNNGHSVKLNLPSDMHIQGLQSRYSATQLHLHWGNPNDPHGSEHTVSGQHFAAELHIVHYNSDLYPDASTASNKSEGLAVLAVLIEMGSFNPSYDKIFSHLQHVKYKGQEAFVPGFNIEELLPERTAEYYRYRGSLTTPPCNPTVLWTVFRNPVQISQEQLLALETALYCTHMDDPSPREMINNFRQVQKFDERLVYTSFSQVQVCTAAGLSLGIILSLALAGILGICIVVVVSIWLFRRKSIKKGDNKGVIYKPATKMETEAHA
# hCA I, sequence (P00915 whole entry): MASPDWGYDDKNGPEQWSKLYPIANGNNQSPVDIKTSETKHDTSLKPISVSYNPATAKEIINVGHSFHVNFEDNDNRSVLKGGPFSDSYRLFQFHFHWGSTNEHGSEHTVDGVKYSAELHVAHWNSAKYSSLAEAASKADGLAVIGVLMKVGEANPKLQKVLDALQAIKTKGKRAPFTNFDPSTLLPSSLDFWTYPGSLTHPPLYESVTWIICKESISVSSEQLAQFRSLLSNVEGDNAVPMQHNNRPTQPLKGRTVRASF
SMILES,pKi (hCA XII),melting point [°C],pKi (hCA II),pKi (hCA I),pKi (hCA IX),Selectivity ratio I/XII (hCA XII),Selectivity ratio II/XII (hCA XII),Selectivity ratio I/IX (hCA IX),Selectivity ratio II/IX (hCA IX),pIC50 [1]
"O=C1Nc2ccccc2C1=CNC1=NS(=O)(=O)c2ccccc21 [Compound 4a, 3-{[(1,1-Dioxidobenzo[d]isothiazol-3-yl)amino]methylene}indolin-2-one]",< 5.00,195 to 199,5.05,< 5.00,< 5.00,–,–,–,–,–
"O=C1Nc2ccccc2C1=CNc1ccc(S(=O)(=O)Nc2ncccn2)cc1 [Compound 4b, 4-{[(2-Oxoindolin-3-ylidene)methyl]amino}-N-(pyrimidin-2-yl)benzenesulfonamide]",< 5.00,238 to 240,< 5.00,< 5.00,< 5.00,–,–,–,–,–
"NS(=O)(=O)OC=C1C(=O)Nc2ccccc21 [Compound 7, (2-Oxoindolin-3-ylidene)methyl sulfamate]",6.88,165 to 170,5.25,5.21,6.03,46.89,41.97,6.63,5.93,–
"O=C1Nc2ccccc2C1=CNc1ccc(C(=O)Nc2nccs2)cc1 [Compound 9c, 4-{[(2-Oxoindolin-3-ylidene)methyl]amino}-N-(thiazol-2-yl)benzamide]",< 5.00,> 300,< 5.00,< 5.00,< 5.00,–,–,–,–,–
"O=C1Nc2ccccc2C1=CNc1ccc(CNc2nccs2)cc1 [Compound 11c, 3-{[(4-((Thiazol-2-ylamino)methyl)phenyl)amino]methylene}indolin-2-one]",< 5.00,150 to 153,< 5.00,< 5.00,< 5.00,–,–,–,–,–
"NS(=O)(=O)c1ccc(NC=CC(=O)c2ccc(NC=C3C(=O)Nc4ccccc43)cc2)cc1 [Compound 13a, 4-{[-3-Oxo-3-(4-{[(-2-oxoindolin-3-ylidene)methyl]amino}phenyl)prop-1-en-1-yl]amino}benzenesulfonamide]",6.74,275 to 278,6.51,6.32,7.04,2.64,1.68,5.29,3.36,–
"NS(=O)(=O)c1ccc(NC(=O)Nc2ccc(NC=C3C(=O)Nc4ccccc43)cc2)cc1 [Compound 15a, 4-{3-[4-({[2-Oxoindolin-3-ylidene]methyl}amino)phenyl]ureido}benzenesulfonamide]",6.76,–,6.12,6.07,6.06,4.83,4.36,0.98,0.88,–
O=C1Nc2ccc(Cl)cc2/C1=N/Nc1nc(-c2ccccc2)cs1 [XIV],–,–,–,–,–,–,–,–,–,5.33

# Source: paper PMC10353187, “Discovery of a new potent oxindole multi-kinase inhibitor among a series of designed 3-alkenyl-oxindoles with ancillary carbonic anhydrase inhibitory activity as antiproliferative agents” (BMC Chemistry, 2023)
